Measurements reported in patent publication US7674815B2, “Heteroaryl and benzyl amide compounds” (Hoffmann-La Roche Inc., priority 2006, dated 2010).

Target: T1, cholesteryl ester transfer protein (CETP) (Homo sapiens, UniProt P11597)
T1 construct: the source of CETP was human lipoprotein-deprived serum (LPDS); from tissue; host or cells: human lipoprotein-deprived serum (LPDS)
T1 sequence (P11597 18-493): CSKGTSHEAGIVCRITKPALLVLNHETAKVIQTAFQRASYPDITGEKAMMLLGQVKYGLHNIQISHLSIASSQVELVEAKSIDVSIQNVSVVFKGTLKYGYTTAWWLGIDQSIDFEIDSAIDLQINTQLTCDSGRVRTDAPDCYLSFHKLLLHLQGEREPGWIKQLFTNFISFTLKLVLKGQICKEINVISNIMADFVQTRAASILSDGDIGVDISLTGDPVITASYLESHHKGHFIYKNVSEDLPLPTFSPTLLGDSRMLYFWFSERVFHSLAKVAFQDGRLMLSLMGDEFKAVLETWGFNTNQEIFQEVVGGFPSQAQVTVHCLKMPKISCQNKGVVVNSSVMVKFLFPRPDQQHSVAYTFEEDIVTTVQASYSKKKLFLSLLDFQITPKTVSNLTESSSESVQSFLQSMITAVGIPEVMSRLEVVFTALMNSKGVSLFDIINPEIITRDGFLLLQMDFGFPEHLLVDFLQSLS
Test: CETP inhibition SPA assay in the presence of plasma (CETP source human lipoprotein-deprived serum)
Assay type: biochemical
Details: source of CETP human lipoprotein-deprived serum (LPDS), radiolabeled cholesteryl ester transfer HDL to LDL
Experimental: Activity of CETP inhibitors was determined using a buffer assay system. Partially purified CETP transferred radiolabeled cholesteryl ester from HDL donor particles to biotin-labeled LDL acceptor particles. The reaction was stopped by addition of streptavidin-coupled scintillation proximity assay (SPA) beads. These beads captured the biotinylated acceptor particles and transferred radioactivity was measured. The assay system was purchased and performed according to manufacturer's recommendations (Amersham Biosciences). Inhibitory activity of compounds was determined as percentage of positive control activity containing CETP together with donor and acceptor particles. Serial dilution of compounds was performed in order to determine the IC50 values.
Activity of the compounds was subsequently measured in the presence of plasma using the same assay as described above except that the source of CETP was human lipoprotein-deprived serum (LPDS). Inhibitory activity of compounds was determined as percentage of positive control activity containing all the assay components except compound. Serial dilution of compounds was performed in order to determine the IC50 values.

Row | IC50 | Compound
1 | 7020 nM | O=C(c1cc(Cl)cc2cc[nH]c12)N(CCc1ccc(Cl)c(Cl)c1)Cc1cc2ccccc2o1 [Compound 1, 5-chloro-1H-indole-7-carboxylic acid benzofuran-2-ylmethyl-[2-(3,4-dichloro-phenyl)-ethyl]-amide]
2 | 282 nM | CNc1cnc(Cl)cc1C(=O)N(CCc1ccc(Cl)c(Cl)c1)Cc1ccc(C(C)(C)C)nc1 [Compound 38, N-(6-tert-butyl-pyridin-3-ylmethyl)-2-chloro-N-[2-(3,4-dichloro-phenyl)-ethyl]-5-methylamino-isonicotinamide]
3 | 56 nM | CNc1ncc(Cl)cc1C(=O)N(CCc1cccc(C(F)(F)F)c1)Cc1ccc(C(C)(C)C)s1 [Compound 53, N-(5-tert-butyl-thiophen-2-ylmethyl)-5-chloro-2-methylamino-N-[2-(3-trifluoromethyl-phenyl)-ethyl]-nicotinamide]
